Data from patent US9101616B2, “Aryl substituted carboxamide derivatives as calcium or sodium channel blockers” (RaQualia Pharma Inc., priority 2009, dated 2015).

Each molecule was assayed against T1, human T-type channel alpha-1H (CaV 3.2) (Homo sapiens, UniProt O95180) (assay: Ca2+ Influx Assay (cell-based fluorescent, FDSS)). Details: HEK 293 cells expressing human CaV 3.2.
T1 construct: expressed in transfected cells; host or cells: HEK 293
T1 sequence (O95180 whole entry): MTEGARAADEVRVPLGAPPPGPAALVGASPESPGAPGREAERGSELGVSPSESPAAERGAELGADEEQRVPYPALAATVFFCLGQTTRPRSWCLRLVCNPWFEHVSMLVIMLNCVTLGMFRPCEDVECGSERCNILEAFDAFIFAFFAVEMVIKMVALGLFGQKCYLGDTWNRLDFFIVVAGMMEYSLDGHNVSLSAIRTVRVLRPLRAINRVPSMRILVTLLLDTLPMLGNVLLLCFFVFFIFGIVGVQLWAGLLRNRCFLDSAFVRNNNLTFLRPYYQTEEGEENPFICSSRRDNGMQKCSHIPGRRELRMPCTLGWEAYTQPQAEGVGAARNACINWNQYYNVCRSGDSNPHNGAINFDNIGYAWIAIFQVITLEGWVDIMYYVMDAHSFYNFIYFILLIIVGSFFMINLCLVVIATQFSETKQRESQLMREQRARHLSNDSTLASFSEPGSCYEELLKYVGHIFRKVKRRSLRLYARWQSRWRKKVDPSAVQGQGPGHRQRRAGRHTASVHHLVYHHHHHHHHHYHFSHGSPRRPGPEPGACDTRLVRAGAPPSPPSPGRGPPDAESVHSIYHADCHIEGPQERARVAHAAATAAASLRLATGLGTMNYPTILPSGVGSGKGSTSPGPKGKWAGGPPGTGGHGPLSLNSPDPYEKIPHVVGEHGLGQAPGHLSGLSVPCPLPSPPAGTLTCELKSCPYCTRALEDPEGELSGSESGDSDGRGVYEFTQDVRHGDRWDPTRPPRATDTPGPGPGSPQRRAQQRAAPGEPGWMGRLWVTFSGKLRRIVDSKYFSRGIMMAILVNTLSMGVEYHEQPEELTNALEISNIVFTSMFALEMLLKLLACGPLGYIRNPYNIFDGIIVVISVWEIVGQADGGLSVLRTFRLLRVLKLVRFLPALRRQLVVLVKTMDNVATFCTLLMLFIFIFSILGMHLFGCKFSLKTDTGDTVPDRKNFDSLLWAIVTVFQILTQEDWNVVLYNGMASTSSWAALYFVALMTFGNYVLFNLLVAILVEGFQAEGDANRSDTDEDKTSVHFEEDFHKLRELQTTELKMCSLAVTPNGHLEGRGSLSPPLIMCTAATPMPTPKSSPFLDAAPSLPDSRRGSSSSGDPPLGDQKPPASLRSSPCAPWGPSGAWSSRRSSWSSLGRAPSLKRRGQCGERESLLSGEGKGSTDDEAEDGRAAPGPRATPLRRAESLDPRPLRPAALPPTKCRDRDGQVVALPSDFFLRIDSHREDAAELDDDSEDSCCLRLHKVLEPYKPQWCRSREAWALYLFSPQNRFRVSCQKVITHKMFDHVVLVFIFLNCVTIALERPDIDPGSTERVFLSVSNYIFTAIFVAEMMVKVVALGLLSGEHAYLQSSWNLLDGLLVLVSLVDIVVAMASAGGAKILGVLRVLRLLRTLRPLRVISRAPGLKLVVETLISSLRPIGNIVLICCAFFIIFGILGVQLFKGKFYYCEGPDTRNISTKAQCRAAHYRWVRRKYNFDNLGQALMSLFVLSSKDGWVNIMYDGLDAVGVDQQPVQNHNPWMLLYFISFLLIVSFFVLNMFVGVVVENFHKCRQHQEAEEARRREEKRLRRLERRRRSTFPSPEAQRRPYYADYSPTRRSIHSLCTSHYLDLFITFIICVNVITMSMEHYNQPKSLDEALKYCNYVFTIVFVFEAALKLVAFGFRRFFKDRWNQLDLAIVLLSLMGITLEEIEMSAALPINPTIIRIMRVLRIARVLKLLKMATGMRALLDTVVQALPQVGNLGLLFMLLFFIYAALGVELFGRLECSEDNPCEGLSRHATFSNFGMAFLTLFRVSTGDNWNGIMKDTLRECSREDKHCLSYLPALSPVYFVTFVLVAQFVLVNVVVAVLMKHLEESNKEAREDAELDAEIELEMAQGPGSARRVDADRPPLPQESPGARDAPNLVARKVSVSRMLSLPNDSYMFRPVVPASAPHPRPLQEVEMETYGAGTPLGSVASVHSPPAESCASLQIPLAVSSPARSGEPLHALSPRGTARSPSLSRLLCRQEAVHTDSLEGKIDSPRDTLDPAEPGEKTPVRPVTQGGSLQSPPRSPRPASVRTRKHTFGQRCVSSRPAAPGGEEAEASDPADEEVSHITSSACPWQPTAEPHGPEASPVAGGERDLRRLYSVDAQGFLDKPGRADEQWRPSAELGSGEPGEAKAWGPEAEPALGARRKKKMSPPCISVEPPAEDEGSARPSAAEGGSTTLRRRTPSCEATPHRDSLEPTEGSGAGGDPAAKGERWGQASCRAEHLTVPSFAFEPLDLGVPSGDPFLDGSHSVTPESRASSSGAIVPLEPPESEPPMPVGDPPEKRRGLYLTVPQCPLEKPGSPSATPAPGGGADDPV
Protocol: Inhibition of T-type calcium channel activity was determined by cell-based flu-orescent Ca^2+ influx assay, in which potassium ionophore was added to decrease resting membrane potential and extra-cellular high-K^+ stimulation was used to modulate the membrane potential of the cell. The changes in fluorescent signal were monitored by the cell imaging technology by Hamamatsu Photonics's Functional Drug Screening System (FDSS).
HEK 293 cells expressing the human T-type channel alpha-1H (CaV 3.2) were maintained in DMEM supplemented with 10% heat-inactivated FBS, 100 units/ml Penicillin, 100 microg/ml Streptomycin, 150 microg/ml Zeocin, 300 microg/ml Geneticin. The cells were grown in a 5% CO2 humidified incubator at 37° C.
• 1. Cells were harvested and seeded in a poly-D-lysine coated black-sided clear bottom 384-well plate at density of 10,000 cells/well at 24 hours prior to assay. • 2. Incubate at 37° C. in 5% CO2. Day Two: • 1. Wash each well with assay buffer (see below) and leave 20 RI using plate washer, ELx-405 Select CW (BIO-TEK). • 2. Add 20 μL of assay buffer containing 6 μM Fluo-4-AM (Molecular Probes) and 0.005% Pluronic F-127 to each well. • 3. Incubate the plate at 37° C. for 1 hour. • 4. Wash each well assay buffer (see below) and leave 20 μl using plate washer, ELx-405 Select CW (BIO-TEK). • 5. Add 10 μl of compound solution into each well by FDSS6000 and leave the plate for 4.5 min, and then add 10 μl of potassium ionophore solution. • 6. Add 20 μl of high-K^+ depolarizing solution (see below) and monitor the change of fluorescent signal.
The IC50 values for compounds of the present invention were determined from 7-point dose-response studies. Curves were generated using the average of duplicate wells for each data point. Finally, the IC50 values are calculated with the best-fit dose curve determined by XLfit.
Work on `C[C@@H](NC(=O)[C@H]1C[C@@H]1c1ccc(OCc2ccccn2)cc1)c1ccc(OCC(F)(F)F)cn1` (relative stereo) [Example 305, (1S*,2S*)-2-(4-(pyridin-2-ylmethoxy)phenyl)-N-((R)-1-(5-(2,2,2-trifluoroethoxy)pyridin-2-yl)ethyl)cyclopropanecarboxamide] yielded an IC50 of at most 300 nM.
`C[C@@H](NC(=O)[C@H]1C[C@@H]1c1cccc(OCc2ccccn2)c1)c1ccc(OCC(F)(F)F)cn1` (relative stereo) [Example 306, (1S*,2S*)-2-(3-(pyridin-2-ylmethoxy)phenyl)-N-((R)-1-(5-(2,2,2-trifluoroethoxy)pyridin-2-yl)ethyl)cyclopropanecarboxamide] was tested, and the IC50 was at most 300 nM.
`COc1ccc([C@H]2C[C@@H]2C(=O)N[C@H](C)c2ccc(OCC3CC3)cn2)cc1C` (relative stereo) [Example 307, (1S*,2S*)-N-((R)-1-(5-(cyclopropyl-methoxy)pyridin-2-yl)ethyl)-2-(4-methoxy-3-methylphenyl) cyclopropanecarboxamide] gave an IC50 of at most 300 nM.
For `COc1ccc([C@H]2C[C@@H]2C(=O)N[C@H](C)c2cnc(OCC(F)(F)F)cn2)cc1C` (relative stereo) [Example 309, (1S*,2S*)-2-(4-methoxy-3-methylphenyl)-N-((R)-1-(5-(2,2,2-trifluomethoxy)pyrazin-2-yl)ethyl)cyclopropanecarboxamide], the IC50 was at most 300 nM.
In the case of `COc1ccc([C@@H]2C[C@H]2C(=O)N[C@H](C)c2cnc(OCC(F)(F)F)cn2)cc1C` (relative stereo) [Example 310, (1R*,2R*)-2-(4-methoxy-3-methylphenyl)-N-((R)-1-(5-(2,2,2-trifluoroethoxy)pyrazin-2-yl)ethyl)cyclopropanecarboxamide], the IC50 is reported as at most 300 nM.
With `C[C@@H](NC(=O)[C@H]1C[C@@H]1c1cccc2cc[nH]c12)c1ccc(OCC2CC2)cn1` (relative stereo) [Example 316, (1S*,2S*)-N-((R)-1-(5-(cyclopropylmethoxy)pyridin-2-yl)ethyl)-2-(1H-indol-7-yl)cyclopropanecarboxamide] the IC50 was at most 300 nM.
For `C[C@@H](NC(=O)[C@@H]1C[C@H]1c1cccc2cc[nH]c12)c1ccc(OCC2CC2)cn1` (relative stereo) [Example 317, (1R*,2R*)-N-((R)-1-(5-(cyclopropylmethoxy)pyridin-2-yl)ethyl)-2-(1H-indol-7-yl)cyclopropanecarboxamide], the IC50 was at most 300 nM.
`C[C@@H](NC(=O)[C@H]1C[C@@H]1COc1ccccc1)c1cnc(OCC(F)(F)F)cn1` (relative stereo) [Example 318, (1S*,2S*)-2-(phenoxymethyl)-N-((R)-1-(5-(2,2,2-trifluoroethoxy)pyrazin-2-yl)ethyl)cyclopropanecarboxamide] gave an IC50 of at most 300 nM.
`C[C@@H](NC(=O)[C@H]1C[C@@H]1COc1ccccc1)c1ccc(OCC(F)(F)F)nc1` (relative stereo) [Example 320, (1S*,2S*)-2-(phenoxymethyl)-N-((R)-1-(6-(2,2,2-trifluoroethoxy)pyridin-3-yl)ethyl)cyclopropanecarboxamide] was tested, and the IC50 was at most 300 nM.
`C[C@@H](NC(=O)[C@H]1C[C@@H]1c1cccc2cc[nH]c12)c1cnc(OCC(F)(F)F)cn1` (relative stereo) [Example 322, (1S*,2S*)-2-(1H-indol-7-yl)-N-((R)-1-(5-(2,2,2-trifluoroethoxy)pyrazin-2-yl)ethyl)cyclopropanecarboxamide] gave an IC50 of at most 300 nM.
`C[C@@H](NC(=O)[C@@H]1C[C@H]1c1cccc2cc[nH]c12)c1cnc(OCC(F)(F)F)cn1` (relative stereo) [Example 323, (1R*,2R*)-2-(1H-indol-7-yl)-N-((R)-1-(5-(2,2,2-trifluoroethoxy)pyrazin-2-yl)ethyl)cyclopropanecarboxamide] gave an IC50 of at most 300 nM.
Molecule `C[C@@H](NC(=O)[C@@H]1C[C@H]1c1ccc2ccccc2n1)c1ccc(OCC(F)(F)F)cn1` (relative stereo) [Example 325, (1R*,2R*)-2-(quinolin-2-yl)-N-((R)-1-(5-(2,2,2-trifluoroethoxy)pyridin-2-yl)ethyl)cyclopropanecarboxamide] has an IC50 of at most 300 nM.
`C[C@@H](NC(=O)[C@H]1C[C@@H]1c1cc(F)ccc1F)c1ccc(OCC(F)(F)F)cn1` (relative stereo) [Example 327, (1S*,2S*)-2-(2,5-difluorophenyl)-N-((R)-1-(5-(2,2,2-trifluoroethoxy)pyridin-2-yl)ethyl)cyclopropanecarboxamide] showed an IC50 of at most 300 nM.
In the case of `C[C@@H](NC(=O)C1CC1c1cn(C)c2ccccc12)c1ccc(OCC(F)(F)F)cn1` (stereo in doubt) [Example 106, trans-2-(1-methyl-1H-indol-3-yl)-N-((R)-1-(5-(2,2,2-trifluoroethoxy)pyridin-2-yl)ethyl)cyclopropanecarboxamide], the IC50 is reported as at most 300 nM.
`C[C@@H](NC(=O)C1CC1c1c[nH]c2c(F)cccc12)c1ccc(OCC(F)(F)F)cn1` (stereo in doubt) [Example 108, trans-2-(7-fluoro-1H-indol-3-yl)-N-((R)-1-(5-(2,2,2-trifluoroethoxy)pyridin-2-yl)ethyl)cyclopropanecarboxamide] was tested, and the IC50 was at most 300 nM.
With `C[C@@H](NC(=O)C1CC1c1c[nH]c2ccc(F)cc12)c1ccc(OCC(F)(F)F)cn1` (stereo in doubt) [Example 110, trans-2-(5-fluoro-1H-indol-3-yl)-N-((R)-1-(5-(2,2,2-trifluoroethoxy)pyridin-2-yl)ethyl)cyclopropanecarboxamide] the IC50 was at most 300 nM.
In the case of `C[C@@H](NC(=O)C1CC1c1c[nH]c2ccc(C#N)cc12)c1ccc(OCC(F)(F)F)cn1` (stereo in doubt) [Example 111, trans-2-(5-cyano-1H-indol-3-yl)-N-((R)-1-(5-(2,2,2-trifluoroethoxy)pyridin-2-yl)ethyl)cyclopropanecarboxamide], the IC50 is reported as at most 300 nM.
`C[C@@H](NC(=O)C1CC1c1cc2ccccc2[nH]1)c1ccc(OCC(F)(F)F)cn1` (stereo in doubt) [Example 124, trans-2-(1H-indol-2-yl)-N-((R)-1-(5-(2,2,2-trifluoroethoxy)pyridin-2-yl)ethyl)cyclopropanecarboxamide] showed an IC50 of at most 300 nM.
For `C[C@@H](NC(=O)C1CC1c1cc2cc(F)ccc2[nH]1)c1ccc(OCC(F)(F)F)cn1` (stereo in doubt) [Example 125, trans-2-(5-fluoro-1H-indol-2-yl)-N-((R)-1-(5-(2,2,2-trifluoroethoxy)pyridin-2-yl)ethyl)cyclopropanecarboxamide], the IC50 was at most 300 nM.
`C[C@@H](NC(=O)C1CC1c1ccc2cc[nH]c2c1)c1ccc(OCC(F)(F)F)nc1` (stereo in doubt) [Example 147, trans-2-(1H-indol-6-yl)-N-((R)-1-(6-(2,2,2-trifluoroethoxy)pyridin-3-yl)ethyl)cyclopropanecarboxamide] was tested, and the IC50 was at most 300 nM.
`C[C@@H](NC(=O)C1CC1c1ccc2ccn(C)c2c1)c1ccc(OCC(F)(F)F)cn1` (stereo in doubt) [Example 167, trans-2-(1-methyl-1H-indol-6-yl)-N-((R)-1-(5-(2,2,2-trifluoroethoxy)pyridin-2-yl)ethyl)cyclopropanecarboxamide] showed an IC50 of at most 300 nM.
`C[C@@H](NC(=O)C1CC1c1c[nH]c2cc(F)ccc12)c1ccc(OCC(F)(F)F)cn1` (stereo in doubt) [Example 168, trans-2-(6-fluoro-1H-indol-3-yl)-N-((R)-1-(5-(2,2,2-trifluoroethoxy)pyridin-2-yl)ethyl)cyclopropanecarboxamide] gave an IC50 of at most 300 nM.
`C[C@@H](NC(=O)C1CC1COc1ccc(Cl)cc1)c1ccc(OCC(F)(F)F)cn1` (stereo in doubt) [Example 169, trans-2-((4-chlorophenoxy)methyl)-N-((R)-1-(5-(2,2,2-trifluoroethoxy)pyridin-2-yl)ethyl)cyclopropanecarboxamide] showed an IC50 of at most 300 nM.
Molecule `C[C@@H](NC(=O)C1CC1c1cc2cc(F)ccc2[nH]1)c1cnc(OCC(F)(F)F)cn1` (stereo in doubt) [Example 171, trans-2-(5-fluoro-1H-indol-2-yl)-N-((R)-1-(5-(2,2,2-trifluoroethoxy)pyrazin-2-yl)ethyl)cyclopropanecarboxamide] has an IC50 of at most 300 nM.
Work on `C[C@@H](NC(=O)C1CC1c1cc2ccccc2cn1)c1ccc(OCC(F)(F)F)cn1` (stereo in doubt) [Example 172, trans-2-(isoquinolin-3-yl)-N-((R)-1-(5-(2,2,2-trifluoroethoxy)pyridin-2-yl)ethyl)cyclopropanecarboxamide] yielded an IC50 of at most 300 nM.
For `C[C@@H](NC(=O)C1CC1c1cc2cc(F)ccc2[nH]1)c1ccc(OCC2CC2)cn1` (stereo in doubt) [Example 181, trans-N-((R)-1-(5-(cyclopropylmethoxy)pyridin-2-yl)ethyl)-2-(5-fluoro-1H-indol-2-yl)cyclopropanecarboxamide], the IC50 was at most 300 nM.
`C[C@@H](NC(=O)C1CC1Cn1ccc2ccccc21)c1ccc(OCC(F)(F)F)cn1` (stereo in doubt) [Example 182, trans-2-((1H-indol-1-yl)methyl)-N-((R)-1-(5-(2,2,2-trifluoroethoxy)pyridin-2-yl)ethyl)cyclopropanecarboxamide] showed an IC50 of at most 300 nM.
